Measured values: ChEMBL document CHEMBL5244255, “An insight on medicinal attributes of 1,2,4-triazoles” (Eur J Med Chem, 2020)
In brackets after ≈: the same amount, converted by molar mass.

Tests used:
[1] = system: Mycobacterium tuberculosis; assay: Antimycobacterial activity against multi drug resistant Mycobacterium tuberculosis measured after 8 to 9 days; format: functional; conditions: time 8-9 day
[2] = system: Mycobacterium tuberculosis; assay: Antimycobacterial activity against drug resistant Mycobacterium tuberculosis measured after 8 to 9 days; format: functional; conditions: time 8-9 day

With `O=[N+]([O-])c1ccc(C2=Nn3c(nnc3-c3ccnc(F)c3)CC2)cc1` the MIC [1] was 0.25 µg/mL (≈ 0.739 µM) and the MIC [2] was 0.25 µg/mL (≈ 0.739 µM).

Work on `Brc1ccc(OCc2nn3c(-c4ccc(Br)cc4)nnc3s2)cc1` yielded an MIC [1] of 4 µg/mL (≈ 8.58 µM) and an MIC [2] of 0.5 µg/mL (≈ 1.07 µM).

Compound `O=[N+]([O-])c1ncn(CCCCNS(=O)(=O)c2scc(Cl)c2Cl)n1` has an MIC [1] of 0.25 µg/mL (≈ 0.625 µM).

In the case of `O=[N+]([O-])c1ccc(C2=Nn3c(nnc3-c3ccc(Br)cc3)CC2)cc1`, the MIC [2] is reported as 0.25 µg/mL (≈ 0.628 µM).

Compound `Clc1ccc(-c2nnc3sc(COc4ccc(Br)cc4)nn23)cc1` has an MIC [1] of 4 µg/mL (≈ 9.49 µM) and an MIC [2] of 0.5 µg/mL (≈ 1.19 µM).
